Assay results from US20090155785A1, “REAL-TIME COLORIMETRIC SCREENING INHIBITORS OF ENDONUCLEASE WITH GOLD NANOPARTICLE SUBSTRATE” (NORTHWESTERN UNIVERSITY, priority 2007, published 2009).

Key:
[1] = tested on: duplex DNA; experiment: Melting temperature of duplex DNA (without nanoparticles) in the presence of DNA binding molecule; conditions: DNA duplex 2.0 μM, sodium phosphate buffer 10 mM pH 7.0, NaCl 100 mM, DNA binding molecule 5.0 μM, control 61.0
[2] = tested on: DNase I; experiment: Colorimetric DNase I inhibition assay, hybridized gold nanoparticle aggregates without linker oligonucleotide (Example 1); type: biochemical; conditions: inhibitor 1 μM, DNase I 15 units/ml, extinction at 520 nm, room temperature; control 6.8 min
Description: In addition to screening enzyme activity, one can easily use the assay to evaluate the efficiency of inhibitors of DNase I. In a typical screening experiment, DNase I (15 units/ml) was added to solutions of the DNA-linked gold nanoparticle aggregates in the presence of one of the following DNA binding molecules: amsacrine (AMSA), anthraquinone-2-carboxylic acid (AQ2A), 9-aminoacridine (9-AA), ellipticine (EIPT), daunorubicin (DNR), ethidium bromide (EB) and 4′,6-diamidedino-2-phenylindole (DAPI) (1 μM), respectively. These DNA binding molecules are known to inhibit DNase I. (See R. A. Ikeda, P. B. Dervan, J. Am. Chem. Soc., 104: 296 (1982); S. M. Forrow, M. Lee, R. L. Souhami, J. A. Hartley, Chem. Biol. Interact., 96: 125 (1995); P. G. Baraldi, A. Bovero, F. Fruttarolo, D. Preti, M. A. Tabrizi, M. G. Pavani, R. Romagnoli, Med. Res. Rev., 24: 475 (2004)). Extinction was monitored at 520 nm as a function of time (sample scan rate=5 min^−), and the color of the solution was followed with the naked eye. The time at which 50% of the aggregate is hydrolyzed (TH) can be used as a measure of inhibition (FIG. 6). The inhibitors decrease DNase I activity and increase the TH and, therefore, the corresponding time required for a color change in the solution. […] The trend is determined based on TH, which is consistent with the relative binding affinities of the inhibitors to DNA, as determined by measuring the melting temperature of the duplex DNA in the presence of each DNA-binding molecule (FIG. 6 and Table 1 below).
The relative binding affinities of the inhibitors to DNA are consistent with the hydrolysis time (TH) of the aggregates by DNase I in the presence of a specific inhibitor. TH is determined by measuring the extinction at 520 nm and determining when half of the particles composing the aggregates have been released.
AuNP-1 and AuNP-2 were functionalized with 3′-thiol-modified 30-mer oligonucleotides (AuNP-1, DNA-1 sequence: 5′-[…]-A10-SH-3′, SEQ ID NO: 1; AuNP-2, DNA-2 sequence: 5′-[…]-A10-SH-3′, SEQ ID NO:2) using previously reported methods. (See J. J. Storhoff, R. Elghanian, R. C. Mucic, C. A. Mirkin, R. L. Letsinger, J. Am. Chem. Soc., 120: 1959 (1998)). After combining 1 ml aliquots of the two probes, AuNP-1 and AuNP-2 (each at 3 nM), in hybridization buffer (50 mM Tris-HCl buffer pH 7.0, 2 mM MgCl2), the mixture was heated to 90° C. and held at this temperature for 10 minutes.
The pre-prepared gold nanoparticle aggregates were washed (3 times) with DNase I buffer (10 mM sodium phosphate buffer pH 7.0, 0.75 mM MgCl2). They were then resuspended in 1 ml of DNase I buffer. A 10 μL aliquot of each of the endonuclease inhibitors (0.1 mM) was then added to a 1 ml solution of the aggregates, respectively, and incubated for 10 minutes. The assay was initiated by adding DNase I, and the hydrolysis kinetics were monitored by UV-vis spectroscopy (Cary 5000, Varian). The solution was continuously stirred with a magnetic stir bar at room temperature to keep the aggregates suspended.

[3] = tested on: DNase I; experiment: Colorimetric DNase I inhibition assay, ligated gold nanoparticle aggregates with linker oligonucleotide (Example 2); type: biochemical; conditions: for t (releasing time; time required to hydrolyze 50% of the aggregates): inhibitor 1 μM, DNase I 15 units/ml, extinction at 520 nm, ligated aggregates, control 9.5 min
Description: A typical screening experiment was slated by adding the DNase I to solutions of the gold nanoparticle aggregates in the presence of one of the DNA binding molecules, amsacrine (AMSA), anthrquinone-2-carboxylic acid (AQ2A), 9-aminoacridine (9-AA), ellipticine (EIPT), daunorubicin (DNR), ethidium bromide (EB) and 4′,6-diamidedino-2-phenylindole (DAPI) (1 μM), respectively. The color changes of the solutions were monitored at 520 nm by UV-vis spectrometry over time (sample scan rate=2 min^−1). The inhibitors can decrease DNase I activity and increase the hydrolysis time and the corresponding time required for a color change in the solution. Thus, we could determine the relative activities of different endonuclease inhibitors by measuring the time required to hydrolyze 50% of the aggregates (t). […] The hydrolysis time is consistent with relative binding affinities of inhibitors to DNA by determining the melting temperature (Tm) of duplex DNA at 260 nm in the presence of each DNA-binding molecule.
High-throughput screening is widely used for the identification of hit compounds from combinatorial libraries. (See P. A. Johnston, P. A. Johnston, Drug Discovery Today, 7: 353 (2002); D. L. Boger, J. Deshamais, K. Capps, Angew. Chem. Int. Ed., 42: 4138 (2003); S. Wang, T. B. Sim, Y.-S. Kim, Y.-T. Chang, Cum Opin. Cham. Biol., 8: 371 (2004)). We have examined the application of the gold nanoparticle aggregates for high throughput screening of endonuclease inhibitors by visual inspection. […] Thus, we can determine potencies of inhibitor using color change as a function of time. […] The trend of potencies of inhibitors was determined to be DAPI>EB>DNR>9-AA, EIPT, and AQ2A>AMSA, which is consistent with the control experiments involving serial analysis of each inhibitors with nanoparticle-free duplex DNA.
Two separate types of DNA-AuNPs were prepared by functionalizing 13 nm gold nanoparticles with two different thiol-modified oligonucleotide strands, AuNP-3 and AuNP-4. AuNP-3 was functionalized with 3′-hydroxyl-modified and 5′-thiol-modified 15-mer oligonucleotides (DNA-3 sequence: 5′-SH-A10-CGTTAGGACTTACGC-OH-3′, SEQ ID NO:3). DNA-3 is complementary to one-half of the 30-mer linker oligonucleotide (DNA-linker oligonucleotide sequence: 5′ […]-3′, SEQ ID NO:5). AuNP-4 was functionalized with 3′-thiolated and 5′-phosphorylated 15-mer oligonucleotides (DNA-4: 5′-PO4^3−-TTATAACTATTCCTA-A10-SH-3′, SEQ ID NO:4) that are complementary to the other half of the linker-oligonucleotide. After combining the three components, AuNP-3 and AuNP-4 (each at 3 nM) as well as the linker-oligonucleotides (3 μM), in the presence of ligation buffer (50 mM Tris-HCl buffer pH 7.5, 5 mM MgCl2, […], 0.05 mg/ml BSA, T4 DNA Ligase 4.000 units/ml), the DNAs assemble to form a three-strand DNA hybridization complex. First the linker-oligonucleotide acts as templates to co-align the 3′-hydroxyl group of the DNA-3 and the 5′-phosphate group of the DNA-4. Then the T4 DNA Ligase catalyzes the formation of a phosphodiester bond between the 3′-hydroxyl and the 5′-phosphate groups of DNA-3 and DNA-4, covalently joining DNA-3 and DNA-4 to form a 30-mer oligonucleotide. This method yield stable 30-base-pair double stranded links between the AuNPs. Since the nanoparticles aggregate, a red-to-purple color change can be observed.
The prepared gold nanoparticle aggregate was washed (3 times) with DNase I buffer (10 mM sodium phosphate buffer pH 7.0, 0.25 mM MgCl2). The assay was initiated by adding DNase I (10-50 units/ml) and the hydrolysis kinetics were monitored by a UV-vis spectrum at the extinction of 520 nm with stirring at room temperature.

| Structure (SMILES) | Tm (melting temperature of duplex DNA in the presence of endonuclease inhibitor) ([1]; Table 1) [°C] | Tm (melting temperature of duplex DNA in the presence of endonuclease inhibitor) ([1]; Table 2, at 260 nm) [°C] | TH (time at which 50% of the aggregate is hydrolyzed by DNase I) [2] [min] | t (releasing time; time required to hydrolyze 50% of the aggregates) [3] [min] | color change of aggregate solution by visual inspection after adding DNase I (FIG. 10) ([3]; visual inspection, purple to red as a function of reaction time, no or slow change indicates inhibition) |
| --- | --- | --- | --- | --- | --- |
| Nc1c2ccccc2nc2ccccc12 [9-AA, 9-aminoacridine] | 62.5 | 62.5 | 24.6 | 16.0 |  |
| O=C(O)c1ccc2c(c1)C(=O)c1ccccc1C2=O [AQ2A, anthraquinone-2-carboxylic acid] | 62.5 | 62.5 | 19.6 | 14.5 |  |
| N=C(N)c1ccc(-c2cc3ccc(C(=N)N)cc3[nH]2)cc1 [DAPI, 4′,6-diamidedino-2-phenylindole] | 77.0 | 77.0 | 101.2 | >1440 | remains light purple throughout the examination time |
| COc1cccc2c1C(=O)c1c(O)c3c(c(O)c1C2=O)C[C@@](O)(C(C)=O)C[C@@H]3O[C@H]1C[C@H](N)[C@H](O)[C@H](C)O1 [DNR, daunorubicin] | 65.5 | 65.5 | 43.2 | 31.5 |  |
| Cc1c2ccncc2c(C)c2c1[nH]c1ccccc12 [EIPT, ellipticine] | 63.0 | 63.0 | 25.2 | 15.0 |  |
